The values below come from patent publication US3985737A, “3-Sulfonate esters of cephalosporin” (Eli Lilly and Company, priority 1974, dated 1976).

One data set is described as follows: Electrometric titration. In kind it is physicochemical. Particulars: 80% aqueous methyl cellosolve, 80 percent aqueous methyl cellosolve. An excerpt:
Electrometric titration (80 percent aqueous methyl cellosolve) pKa 3.9.
Electrometric titration in 80 percent aqueous methyl cellosolve pKa 4.15.
Electrometric titration in 80 percent aqueous methyl cellosolve pKa 4.75.
Electrometric titration (80 percent aqueous methyl cellosolve) pKa 4.4.
Electrometric titration (80 percent aqueous methyl cellosolve) pKa 4.25.

The subject of a further data set is Klebsiella pneumoniae. The data set is described as follows: Standard Gradient-Plate method, MIC vs. Klebsiella pneumoniae. In kind it is cell-based. The following applies: in vitro, read-out: Minimum Inhibitory Concentration. The text has this: (§1) The 7-acylamido-3-cephem-3-sulfonate esters of the formula I wherein R1 is hydrogen (the free acid form) are useful antibiotic substances which are useful in combatting infections attributable to gram-positive and gram-negative bacteria and also penicillin resistant staphylococci. The antibacterial activity of these sulfonate esters is illustrated by the following in vitro test data obtained with representative compounds. In Table I below, the minimum inhibitory concentration (MIC) for representative compounds against gram-negative bacteria is presented. The data were obtained by the standard Gradient-Plate method.

A further data set concerns Aerobacter aerogenes. The data set is described as follows: Standard Gradient-Plate method, MIC vs. Aerobacter aerogenes. In kind it is cell-based. Particulars: Klebsiella aerogenes, in vitro, read-out: Minimum Inhibitory Concentration.
From the text: as §1

Another data set concerns Serratia marcescens. The data set is described as follows: Standard Gradient-Plate method, MIC vs. Serratia marcescens. In kind it is cell-based. The following applies: in vitro, read-out: Minimum Inhibitory Concentration.
From the text: as §1

The next data set deals with Salmonella heidelberg. The data set is described as follows: Standard Gradient-Plate method, MIC vs. Salmonella heidelberg. The data set is classed as cell-based. The following applies: Salmonella enterica, in vitro, read-out: Minimum Inhibitory Concentration.
From the text: as §1

Another data set deals with Escherichia coli. Put plainly: Standard Gradient-Plate method, MIC vs. Escherichia coli. In kind it is cell-based. The following applies: in vitro, read-out: Minimum Inhibitory Concentration.
From the text: as §1

The next data set has as its system Pseudomonas aeruginosa. The data set is described as follows: Standard Gradient-Plate method, MIC vs. Pseudomonas aeruginosa. In kind it is cell-based. The following applies: in vitro, read-out: Minimum Inhibitory Concentration.
From the text: as §1

The test system of another data set is Shigella sp. Put plainly: Standard Gradient-Plate method, MIC vs. Shigella sp. In kind it is cell-based. Particulars: in vitro, read-out: Minimum Inhibitory Concentration.
From the text: as §1

Structures are written as SMILES. Converted amounts (≈) assume the structure as drawn. Where two headings read alike, the source gives them in different places.

Turning to `O=C(Cc1cccs1)NC1C(=O)N2C(C(=O)O)=C(OS(=O)(=O)c3ccc(F)cc3)CS[C@H]12` (stereo partly shown) [Compound 5, 7-[2-(2-thienyl)acetamido]-3-(4-fluorobenzenesulfonyloxy)-3-cephem-4-carboxylic acid], the pKa in “Electrometric titration” (read-out: pKa) is 4.25. Moreover, the MIC with Klebsiella pneumoniae is 16.3 µg/mL (≈ 32.7 µM); in the data set on Aerobacter aerogenes it was 12 µg/mL (≈ 24.1 µM); with Serratia marcescens, greater than 200 µg/mL; in the data set on Salmonella heidelberg, 13.5 µg/mL (≈ 27.1 µM); in the data set on Escherichia coli it was 24 µg/mL (≈ 48.1 µM); in the data set with Pseudomonas aeruginosa it was greater than 200 µg/mL. For the same compound, the MIC in the data set with Shigella sp. was determined as 16.5 µg/mL (≈ 33.1 µM).
As for `CS(=O)(=O)OC1=C(C(=O)O)N2C(=O)C(NC(=O)Cc3cccs3)[C@H]2SC1` (stereo partly shown) [Compound 1, 7-[2-(2-thienyl)acetamido]-3-methylsulfonyloxy-3-cephem-4-carboxylic acid], the pKa in the data set “Electrometric titration” (read-out: pKa) came to 3.9. The MIC with Klebsiella pneumoniae was 6.5 µg/mL (≈ 15.5 µM); in the data set on Aerobacter aerogenes, 3.5 µg/mL (≈ 8.36 µM); in the data set on Serratia marcescens, 110 µg/mL (≈ 263 µM); with Salmonella heidelberg it was 2 µg/mL (≈ 4.78 µM); in the data set with Escherichia coli, 11 µg/mL (≈ 26.3 µM); in the data set on Pseudomonas aeruginosa it was greater than 200 µg/mL. For the same compound, the MIC in the data set on Shigella sp. came out at 10.7 µg/mL (≈ 25.6 µM).
For `CCS(=O)(=O)OC1=C(C(=O)O)N2C(=O)C(NC(=O)Cc3cccs3)[C@H]2SC1` (stereo partly shown) [Compound 2, 7-[2-(2-thienyl)acetamido]-3-ethylsulfonyloxy-3-cephem-4-carboxylic acid], the pKa in “Electrometric titration” (read-out: pKa) stood at 4.15. The MIC is 7 µg/mL (≈ 16.2 µM) in the data set on Klebsiella pneumoniae; 3.5 µg/mL (≈ 8.09 µM) in the data set with Aerobacter aerogenes; 120 µg/mL (≈ 277 µM) in the data set on Serratia marcescens; 4 µg/mL (≈ 9.25 µM) in the data set with Salmonella heidelberg; 13.1 µg/mL (≈ 30.3 µM) with Escherichia coli; greater than 200 µg/mL in the data set with Pseudomonas aeruginosa. Also, the MIC in the data set with Shigella sp. is 7 µg/mL (≈ 16.2 µM).
Turning to `Cc1ccc(S(=O)(=O)OC2=C(C(=O)O)N3C(=O)C(NC(=O)Cc4cccs4)[C@H]3SC2)cc1` (stereo partly shown) [Compound 4, 7-[2-(2-thienyl)acetamido]-3-(p-toluenesulfonyloxy)-3-cephem-4-carboxylic acid], the pKa in “Electrometric titration” (read-out: pKa) amounted to 4.4. The MIC with Klebsiella pneumoniae was 9.3 µg/mL (≈ 18.8 µM); with Aerobacter aerogenes, 16.5 µg/mL (≈ 33.4 µM); in the data set with Serratia marcescens it was greater than 200 µg/mL; with Salmonella heidelberg, 125 µg/mL (≈ 253 µM); with Escherichia coli, 16.3 µg/mL (≈ 33 µM); with Pseudomonas aeruginosa, greater than 200 µg/mL. Moreover, the MIC in the data set with Shigella sp. was 19.5 µg/mL (≈ 39.4 µM).
As for `CCCCS(=O)(=O)OC1=C(C(=O)O)N2C(=O)C(NC(=O)Cc3cccs3)[C@H]2SC1` (stereo partly shown) [Compound 3, 7-[2-(2-thienyl)acetamido]-3-n-butylsulfonyloxy-3-cephem-4-carboxylic acid], the pKa in “Electrometric titration” (read-out: pKa) came to 4.75. In addition, the MIC is 5.5 µg/mL (≈ 11.9 µM) in the data set with Klebsiella pneumoniae; 6 µg/mL (≈ 13 µM) in the data set with Aerobacter aerogenes; 180 µg/mL (≈ 391 µM) in the data set on Serratia marcescens; 6 µg/mL (≈ 13 µM) in the data set on Salmonella heidelberg; 8.8 µg/mL (≈ 19.1 µM) in the data set on Escherichia coli; greater than 200 µg/mL with Pseudomonas aeruginosa. Moreover, the MIC in the data set with Shigella sp. was found to be 6.5 µg/mL (≈ 14.1 µM).
`CS(=O)(=O)OC1=C(C(=O)O)N2C(=O)C(NC(=O)[C@H](N)c3ccccc3)C2SC1` (stereo partly drawn) [Compound 6, 7-(D-phenylglycylamido)-3-methylsulfonyloxy-3-cephem-4-carboxylic acid]: the pKa in “Electrometric titration” (read-out: pKa) was determined as 3.6; in the data set “Electrometric titration” (second of two pKa values, read-out: pKa (second value)), 6.75. The MIC with Klebsiella pneumoniae was 5.5 µg/mL (≈ 12.9 µM); in the data set with Aerobacter aerogenes, 8.8 µg/mL (≈ 20.6 µM); in the data set on Serratia marcescens, 100 µg/mL (≈ 234 µM); with Salmonella heidelberg, 7 µg/mL (≈ 16.4 µM); in the data set on Escherichia coli, 19.5 µg/mL (≈ 45.6 µM); in the data set on Pseudomonas aeruginosa, greater than 200 µg/mL. Moreover, the MIC in the data set with Shigella sp. turned out to be 13.6 µg/mL (≈ 31.8 µM).
